The source made the active and inactive calls. The rule behind the calls is not given here.
Legend:
MDA-MB-231 [1] = assay: Induction of intracellular ROS generation in human MDA-MB-231 cells at 5 to 10 uM incubated for 24 hrs by H2DCFDA staining based flow cytometric analysis; format: functional, cell-based; conditions: dose 5-10 µM
MDA-MB-231 [2] = assay: Cytotoxicity against human MDA-MB-231 cells assessed as inhibition of cell growth incubated for 48 hrs by MTT assay; format: functional, cell-based; conditions: MDA-MB-231, 48 h
[3] = Selectivity ratio of IC50 for HEK cells to IC50 for human PC-3 cells; format: toxicity; conditions: HEK cells versus PC-3 cells, read-out: Ratio IC50
MDA-MB-231 [4] = assay: Induction of apoptosis in human MDA-MB-231 cells assessed as viable cells at 10 uM incubated for 24 hrs by annexin V-FITC/PI staining based flow cytometry analysis (reference value: 98.4%); format: functional; conditions: read-out: Activity
MDA-MB-231 [5] = assay: Induction of apoptosis in human MDA-MB-231 cells assessed as viable cells at 5 uM incubated for 24 hrs by annexin V-FITC/PI staining based flow cytometry analysis (reference value: 98.4%); format: functional; conditions: read-out: Activity
PC-3 = assay: Cytotoxicity against human PC-3 cells assessed as inhibition of cell growth incubated for 48 hrs by MTT assay; format: functional, cell-based; conditions: PC-3, 48 h
[6] = Selectivity ratio of IC50 for HEK cells to IC50 for human MDA-MB-231 cells; format: toxicity; conditions: HEK cells versus MDA-MB-231 cells, read-out: Ratio IC50
MDA-MB-231 [7] = assay: Induction of apoptosis in human MDA-MB-231 cells assessed as early apoptotic cells at 10 uM incubated for 24 hrs by annexin V-FITC/PI staining based flow cytometry analysis (reference value: 1.4%); format: functional
[8] = Selectivity ratio of IC50 for HEK cells to IC50 for human HepG2 cells; format: toxicity; conditions: HEK cells versus HepG2 cells, read-out: Ratio IC50
MG-63 = assay: Cytotoxicity against human MG-63 cells assessed as inhibition of cell growth incubated for 48 hrs by MTT assay; format: functional, cell-based; conditions: MG-63, 48 h
MDA-MB-231 [9] = assay: Induction of apoptosis in human MDA-MB-231 cells assessed as late apoptotic cells at 10 uM incubated for 24 hrs by annexin V-FITC/PI staining based flow cytometry analysis (reference value: 0.2%); format: functional
MDA-MB-231 [10] = assay: Induction of apoptosis in human MDA-MB-231 cells assessed as late apoptotic cells at 5 uM incubated for 24 hrs by annexin V-FITC/PI staining based flow cytometry analysis (reference value: 0.2%); format: functional
RKO = assay: Cytotoxicity against human RKO cells assessed as inhibition of cell growth incubated for 48 hrs by MTT assay; format: functional, cell-based
Tubulin (Homo sapiens) [11] = biological target: T1, Tubulin (Homo sapiens) (UniProt P68371+Q9H4B7+P0DPH7+P68366+Q13509+Q71U36+P04350+Q3ZCM7+P07437+P68363+Q9BQE3+Q6PEY2+Q13885+Q9BVA1+Q9BUF5); assay: Disruption of microtubule network in human MDA-MB-231 cells assessed as decrease in beta-tubulin expression at 5 to 10 uM incubated for 24 hrs by immunofluorescence staining based confocal microscopic analysis; format: cell-based; conditions: dose 5-10 µM
[12] = Cytotoxicity against HEK cells assessed as inhibition of cell growth incubated for 48 hrs by MTT assay; format: toxicity, cell-based; conditions: human
Tubulin (Homo sapiens) [13] = biological target: T1, Tubulin (Homo sapiens); assay: Disruption of microtubule network in human MDA-MB-231 cells assessed as decrease in beta-tubulin expression incubated for 24 hrs by immunofluorescence staining based confocal microscopic analysis; format: cell-based; conditions: dose 5-10 µM
MDA-MB-231 [14] = assay: Induction of apoptosis in human MDA-MB-231 cells assessed as early apoptotic cells at 5 uM incubated for 24 hrs by annexin V-FITC/PI staining based flow cytometry analysis (reference value: 1.4%); format: functional
Mitochondrial membrane = assay: Induction of mitochondrial membrane potential depolarization in human MDA-MB-231 cells at 5 to 10 uM incubated for 24 hrs by JC-1 dye based flow cytometric analysis; conditions: dose 5-10 µM
MDA-MB-231 [15] = assay: Induction of apoptosis in human MDA-MB-231 cells assessed as necrotic cells at 10 uM incubated for 24 hrs by annexin V-FITC/PI staining based flow cytometry analysis (reference value: 0.0%); format: functional
HepG2 = assay: Cytotoxicity against human HepG2 cells assessed as inhibition of cell growth incubated for 48 hrs by MTT assay; format: functional, cell-based; conditions: HepG2, 48 h
MDA-MB-231 [16] = assay: Induction of apoptosis in human MDA-MB-231 cells assessed as necrotic cells at 5 uM incubated for 24 hrs by annexin V-FITC/PI staining based flow cytometry analysis (reference value: 0.0%); format: functional

Structure (SMILES) | IC50 (MDA-MB-231 [2]) | IC50 (PC-3) | IC50 (MG-63) | IC50 (RKO) | IC50 (HepG2) | other results
COc1cc(C(=O)/C=C/c2nc(-c3ccc(Cl)cc3)n3ccccc23)cc(OC)c1OC | 4.23 µM | 17.9 µM | 6.23 µM | 18.8 µM | 20.8 µM | Activity (MDA-MB-231 [1]): Active; selectivity ratio [3]: 3; viability at 10 µM (MDA-MB-231 [4]): 67.2%; viability at 5 µM (MDA-MB-231 [5]): 90.6%; selectivity ratio [6]: 11; Activity (MDA-MB-231 [7]): 18.6%; selectivity ratio [8]: 2; Activity (MDA-MB-231 [9]): 13.9%; Activity (MDA-MB-231 [10]): 5.5%; Activity (Tubulin (Homo sapiens) [11]): Active; IC50 at 48 h [12]: 50 µM; Activity (Tubulin (Homo sapiens) [13]): Dose-dependent-effect; Activity (MDA-MB-231 [14]): 3.8%; Activity (Mitochondrial membrane): Active; Activity (MDA-MB-231 [15]): 0.3%; Activity (MDA-MB-231 [16]): 0%
COc1ccc(-c2nc(/C=C/C(=O)c3ccc(Cl)c(Cl)c3)c3ccccn23)cc1 | > 50 µM | > 50 µM | 46.3 µM | > 50 µM | > 50 µM | 
COc1ccc(C(=O)/C=C/c2nc(-c3ccc(F)cc3)n3ccccc23)cc1OC | > 50 µM | > 50 µM | > 50 µM | > 50 µM | > 50 µM | 
COc1ccc(C(=O)/C=C/c2nc(-c3ccc(Cl)cc3)n3ccccc23)cc1OC | > 50 µM | > 50 µM | > 50 µM | > 50 µM | > 50 µM | 
COc1cc(C(=O)/C=C/c2nc(-c3ccccc3)n3ccccc23)cc(OC)c1OC | 12.3 µM | > 50 µM | 12.6 µM | > 50 µM | 13.6 µM | 
O=C(/C=C/c1nc(-c2ccc(C(F)(F)F)cc2)n2ccccc12)c1ccc(Cl)c(Cl)c1 | > 50 µM | > 50 µM | > 50 µM | > 50 µM | > 50 µM | 
O=C(/C=C/c1nc(-c2ccc(Cl)cc2)n2ccccc12)c1ccc(F)c(F)c1 | > 50 µM | > 50 µM | > 50 µM | > 50 µM | > 50 µM | 
COc1ccc(-c2nc(/C=C/C(=O)c3ccc(F)c(F)c3)c3ccccn23)cc1 | > 50 µM | > 50 µM | 32.6 µM | > 50 µM | > 50 µM | 
O=C(/C=C/c1nc(-c2ccc(Cl)cc2)n2ccccc12)c1ccc(Cl)c(Cl)c1 | 3.26 µM | 14.9 µM | 7.89 µM | 7.83 µM | 4.57 µM | Activity (MDA-MB-231 [1]): Active; selectivity ratio [3]: 4; viability at 10 µM (MDA-MB-231 [4]): 48.6%; viability at 5 µM (MDA-MB-231 [5]): 66.5%; selectivity ratio [6]: 19; Activity (MDA-MB-231 [7]): 21.2%; selectivity ratio [8]: 13; Activity (MDA-MB-231 [9]): 29.9%; Activity (MDA-MB-231 [10]): 26.9%; Activity (Tubulin (Homo sapiens) [11]): Active; IC50 at 48 h [12]: 62 µM; Activity (Tubulin (Homo sapiens) [13]): Dose-dependent-effect; Activity (MDA-MB-231 [14]): 5.1%; Activity (Mitochondrial membrane): Active; Activity (MDA-MB-231 [15]): 0.3%; Activity (MDA-MB-231 [16]): 1.6%
COc1ccc(C(=O)/C=C/c2nc(-c3ccc(C(F)(F)F)cc3)n3ccccc23)cc1OC | > 50 µM | > 50 µM | > 50 µM | > 50 µM | > 50 µM | 
O=C(/C=C/c1nc(-c2ccccc2)n2ccccc12)c1ccc(Cl)c(Cl)c1 | > 50 µM | > 50 µM | 45.6 µM | > 50 µM | > 50 µM | 
COc1ccc(-c2nc(/C=C/C(=O)c3ccc(OC)c(OC)c3)c3ccccn23)cc1 | > 50 µM | > 50 µM | 20.5 µM | > 50 µM | > 50 µM | 
COc1cc(C(=O)/C=C/c2nc(-c3ccc(C(F)(F)F)cc3)n3ccccc23)cc(OC)c1OC | > 50 µM | > 50 µM | > 50 µM | > 50 µM | > 50 µM | 
O=C(/C=C/c1nc(-c2ccc(F)cc2)n2ccccc12)c1ccc(Cl)c(Cl)c1 | > 50 µM | > 50 µM | 10.2 µM | > 50 µM | > 50 µM | 
COC(=O)Nc1nc2cc(C(=O)c3cccs3)ccc2[nH]1 [NOCODAZOLE] | 3.2 µM | 2.89 µM | 1.25 µM | 2.56 µM | 2.15 µM | Activity (MDA-MB-231 [1]): Active; viability at 10 µM (MDA-MB-231 [4]): 46%; Activity (MDA-MB-231 [7]): 5.6%; Activity (MDA-MB-231 [9]): 48.3%; Activity (Mitochondrial membrane): Active; Activity (MDA-MB-231 [15]): 0%
COc1ccc(C(=O)/C=C/c2nc(-c3ccccc3)n3ccccc23)cc1OC | > 50 µM | > 50 µM | 56.3 µM | > 50 µM | > 50 µM | 
O=C(/C=C/c1nc(-c2ccc(C(F)(F)F)cc2)n2ccccc12)c1ccc(F)c(F)c1 | > 50 µM | > 50 µM | > 50 µM | > 50 µM | > 50 µM | 
O=C(/C=C/c1nc(-c2ccc(F)cc2)n2ccccc12)c1ccc(F)c(F)c1 | > 50 µM | > 50 µM | 11.6 µM | > 50 µM | > 50 µM | 
COc1ccc(-c2nc(/C=C/C(=O)c3cc(OC)c(OC)c(OC)c3)c3ccccn23)cc1 | > 50 µM | > 50 µM | 21.3 µM | > 50 µM | > 50 µM | 
O=C(/C=C/c1nc(-c2ccccc2)n2ccccc12)c1ccc(F)c(F)c1 | > 50 µM | > 50 µM | 85.2 µM | > 50 µM | > 50 µM | 
COc1cc(C(=O)/C=C/c2nc(-c3ccc(F)cc3)n3ccccc23)cc(OC)c1OC | > 50 µM | > 50 µM | > 50 µM | > 50 µM | > 50 µM | 

Reference: ChEMBL document CHEMBL6182839, “Exploration of the cytotoxic and microtubule disruption potential of novel imidazo[1,5-a]pyridine-based chalcones” (RSC Med Chem, 2025)
